Values of other authors as cited in article PMC9598925, “Synthetic Amphipathic β-Sheet Temporin-Derived Peptide with Dual Antibacterial and Anti-Inflammatory Activities” (Antibiotics, 2022).
Where two headings read alike, the source gives them in different places.

How the values were obtained:
[1] = 10 μM peptide; LUVs DOPG/CL, ANTS/DPX; cited from earlier work
Protocol: In this study, we evaluated the membranolytic activity of analogue [Nle^1, DLeu^9, DLys^10]TL in presence of LUVs mimicking Gram-positive and Gram-negative membranes by using ANTS/DPX leakage assay. […] Indeed, after the treatment with 10 μM of [Nle^1, DLeu^9, DLys^10]TL, we observed ~60% of LUVs leakage in com ...

[2] = tested on: J774A.1 murine macrophage cells; conditions: highest concentration of 25 μM; previous work of the authors; cited from earlier work
B. megaterium Bm11 = conditions: lead peptide, previous works ref 27, 41; cited from earlier work
Source text: (§1) Table 2 MICs values of peptide [Nle^1, DLeu^9, DLys^10]TL in comparison with [DLeu^9, DLys^10]TL on selected Gram-positive and Gram-negative strains. | column: MIC Values (μM) / [DLeu^9, DLys^10]TL *

S. aureus ATCC 25923 = conditions: lead peptide, previous works ref 27, 41; cited from earlier work
Source text: as §1

[3] = tested on: K. pneumoniae ATCC BAA-1705; conditions: lead peptide, previous works ref 27, 41; cited from earlier work
Source text: as §1

P. aeruginosa ATCC 27853 = conditions: lead peptide, previous works ref 27, 41; cited from earlier work
Source text: as §1

E. coli ATCC 25922 = conditions: lead peptide, previous works ref 27, 41; cited from earlier work
Source text: as §1

[4] = tested on: S. epidermidis ATCC 12228; conditions: lead peptide, previous works ref 27, 41; cited from earlier work
Source text: as §1

A. baumannii ATCC 19606 = conditions: lead peptide, previous works ref 27, 41; cited from earlier work
Source text: as §1

[5] = LUVs DOPG/CL, cited from earlier work
Protocol: LUVs composed of DOPG/CL (58/42 ratio in moles) and DOPG/DOPE/CL ([…] ratio in moles) were used to mimic Gram-positive and Gram-negative cell membranes, respectively. LUVs were titrated with different peptide concentrations of 5, 10, 15, […], 30, and 50 μM. […] In contrast, the peptide [DLeu^9, DLys^10]TL progressively oligomerized in LUVs (DOPG/CL) as described in Bellavita et al.; in fact, it was partially aggr ...

HaCaT cells = conditions: highest concentration of 25 μM; previous work of the authors; cited from earlier work
[6] = LUVs mimicking Gram-positive and Gram-negative membranes; cited from earlier work
Source text: The molecular conformation of [Nle^1, DLeu^9, DLys^10]TL was investigated by circular dichroism (CD) spectroscopy both in LUVs made of DOPG/CL and DOPG/DOPE/CL (Figure 3, panel A). […] In contrast, the introduction of Nle induced changes in molecular conformation, determining the formation of β-aggregates.

[7] = tested on: zymosan-induced peritonitis; conditions: cited from earlier work
[8] = range of concentrations 1 μM–200 μM; cited from earlier work
Source text: The impact of Nle on the aggregation propensity was studied in solution and in presence of large unilamellar vesicles (LUVs) mimicking Gram-positive and Gram-negative membranes. The aggregation in aqueous solution was monitored using Nile Red (NR) as a fluorescent probe. […] The introduction of the Nle residue conferred to peptide [Nle^1, DLeu^9, DLys^10]TL a low propensity to aggregate in aqueous solution as shown ...

For FVPWFSKFlkRIL [[DLeu^9, DLys^10]TL], the LUVs leakage [1] is listed as ~ 23%, the “cytotoxicity on murine macrophages” value [2] is listed as “not cytotoxic” and the MIC (B. megaterium Bm11) is listed as 3.12 µM. The MIC (S. aureus ATCC 25923) was 6.25 µM, the MIC [3] was 12.5 µM and the MIC (P. aeruginosa ATCC 27853) was 12.5 µM. The MIC (E. coli ATCC 25922) was 12.5 µM, the MIC [4] was 3.12 µM and the MIC (A. baumannii ATCC 19606) was 6.25 µM. The “aggregation (ThT)” value ([5]; 20 μM peptide) was ~ 56%, the “aggregation (ThT)” value ([5]; 50 μM peptide) was “completely aggregated” and the “cytotoxicity on human keratinocytes” value (HaCaT cells) was “not cytotoxic”. The “molecular conformation (CD)” value [6] was “helical aggregates”, the “anti-inflammatory activity in vivo” value [7] was “significant anti-inflammatory activity” and the “level of pro-inflammatory cytokines IL-6, MCP-1 and TNF-α” value [7] was “reduced the level of pro-inflammatory cytokines”. For the same substance, the aggregation in solution [8] was “unable to aggregate in solution”.
